According to ChEMBL document CHEMBL5104195, “Discovery of Orally Bioavailable SOS1 Inhibitors for Suppressing KRAS-Driven Carcinoma” (J Med Chem, 2022):

Legend:
[1] = Half life in Sprague-Dawley rat at 10 mg/kg, po measured upto 24 hrs by LC/MS/MS analysis; settings: in vivo
[2] = Toxicity in BALB/c nude mouse xenografted with human MIA PaCa-21 cells expressing KRAS G12C mutant assessed as animal death at 50 mg/kg, po qd measured on day 21; settings: in vivo, 504 h
[3] = Plasma protein binding in mouse at 2 uM preincubated for 1 hr by balanced dialysis based LC-MS/MS analysis
[4] = dog, in vivo, po, 20 mg/kg, 24 h
[5] = rat, in vivo, po, 10 mg/kg, 24 h
[6] = dog, in vivo, po, 20 mg/kg, 24 h; remark: listed apart in the source
Cytochrome P450 2C9 [7] = biological target: T1, Cytochrome P450 2C9 (Homo sapiens, UniProt P11712); assay: Time-dependent inhibition of CYP2C9 (unknown origin) at 2 ul pre-incubated for 30 mins in presence or absence of NADPH incubated for 10 mins by LC/MS analysis
T1 sequence (P11712 whole entry): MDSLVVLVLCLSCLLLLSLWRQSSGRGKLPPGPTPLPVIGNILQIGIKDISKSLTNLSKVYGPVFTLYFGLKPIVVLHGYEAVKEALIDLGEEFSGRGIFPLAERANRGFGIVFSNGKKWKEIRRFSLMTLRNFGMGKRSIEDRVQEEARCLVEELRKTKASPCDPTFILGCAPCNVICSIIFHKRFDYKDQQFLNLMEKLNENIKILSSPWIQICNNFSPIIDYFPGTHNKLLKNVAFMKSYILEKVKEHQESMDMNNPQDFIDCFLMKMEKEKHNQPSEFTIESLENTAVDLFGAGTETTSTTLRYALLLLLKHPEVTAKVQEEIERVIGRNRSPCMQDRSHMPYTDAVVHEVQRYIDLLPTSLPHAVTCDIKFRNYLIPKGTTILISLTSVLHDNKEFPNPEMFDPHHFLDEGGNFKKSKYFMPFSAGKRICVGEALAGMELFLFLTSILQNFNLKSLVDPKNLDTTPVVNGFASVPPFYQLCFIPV

[8] = rat, in vivo, iv, 2 mg/kg, 24 h
[9] = Plasma protein binding in dog at 2 uM preincubated for 1 hr by balanced dialysis based LC-MS/MS analysis
in vivo [10] = settings: ICR, mouse, po, 50 mg/kg
[11] = rat, in vivo, po, 10 mg/kg, 24 h; remark: listed apart in the source
[12] = Cardiotoxicity in Patient-specific iPSC-derived cardiomyocytes assessed as decrease in action potential duration by patch clamp assay; type: toxicity, cell-based; settings: human, cardiac muscle cell
Cytochrome P450 2C9 [13] = biological target: T1, Cytochrome P450 2C9; assay: Inhibition of CYP2C9 in human liver microsomes at 10 uM using diclofenac as substrate preincubated for 10 mins followed by NADPH addition by LC/MS analysis
[14] = dog, in vivo, po, 20 mg/kg, 24 h; remark: listed apart in the source
[15] = MRT in ICR mouse at 50 mg/kg, po measured up to 24 hrs by LC-MS/MS analysis; settings: in vivo
in vitro [16] = settings: human, liver microsomes
[17] = Cardiotoxicity in Patient-specific iPSC-derived cardiomyocytes assessed as decrease in spontaneous beating of myocardial cell at 3 uM by patch clamp assay; settings: human, cardiac muscle cell
in vivo [18] = settings: Sprague-Dawley, rat, po, 10 mg/kg
[19] = Apparent permeability across basolateral side to apical side in dog MDCKII-MDR1 cells; settings: MDCK-MDR1
in vitro [20] = settings: rat, liver microsomes
Cytochrome P450 2C8 [21] = biological target: T2, Cytochrome P450 2C8 (Homo sapiens, UniProt P10632); assay: Inhibition of CYP2C8 in human liver microsomes at 10 uM using amodiaquine as substrate preincubated for 10 mins followed by NADPH addition by LC/MS analysis
T2 sequence (P10632 whole entry): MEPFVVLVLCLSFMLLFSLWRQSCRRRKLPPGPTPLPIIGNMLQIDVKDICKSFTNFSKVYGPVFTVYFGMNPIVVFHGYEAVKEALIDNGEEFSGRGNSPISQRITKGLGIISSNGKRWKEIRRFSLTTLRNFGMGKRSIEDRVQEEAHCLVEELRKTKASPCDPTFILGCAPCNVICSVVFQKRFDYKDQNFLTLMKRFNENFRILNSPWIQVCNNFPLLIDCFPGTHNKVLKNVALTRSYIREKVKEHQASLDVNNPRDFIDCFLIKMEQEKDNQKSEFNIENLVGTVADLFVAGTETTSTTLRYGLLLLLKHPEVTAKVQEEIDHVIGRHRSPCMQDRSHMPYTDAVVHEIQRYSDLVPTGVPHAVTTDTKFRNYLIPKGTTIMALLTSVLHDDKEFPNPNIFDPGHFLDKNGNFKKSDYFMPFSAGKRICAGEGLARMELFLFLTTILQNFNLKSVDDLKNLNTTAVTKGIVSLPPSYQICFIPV

Cytochrome P450 2D6 [22] = biological target: T3, Cytochrome P450 2D6 (Homo sapiens, UniProt P10635); assay: Inhibition of CYP2D6 in human liver microsomes at 10 uM using dextromethorphan as substrate preincubated for 10 mins followed by NADPH addition by LC/MS analysis
T3 sequence (P10635 whole entry): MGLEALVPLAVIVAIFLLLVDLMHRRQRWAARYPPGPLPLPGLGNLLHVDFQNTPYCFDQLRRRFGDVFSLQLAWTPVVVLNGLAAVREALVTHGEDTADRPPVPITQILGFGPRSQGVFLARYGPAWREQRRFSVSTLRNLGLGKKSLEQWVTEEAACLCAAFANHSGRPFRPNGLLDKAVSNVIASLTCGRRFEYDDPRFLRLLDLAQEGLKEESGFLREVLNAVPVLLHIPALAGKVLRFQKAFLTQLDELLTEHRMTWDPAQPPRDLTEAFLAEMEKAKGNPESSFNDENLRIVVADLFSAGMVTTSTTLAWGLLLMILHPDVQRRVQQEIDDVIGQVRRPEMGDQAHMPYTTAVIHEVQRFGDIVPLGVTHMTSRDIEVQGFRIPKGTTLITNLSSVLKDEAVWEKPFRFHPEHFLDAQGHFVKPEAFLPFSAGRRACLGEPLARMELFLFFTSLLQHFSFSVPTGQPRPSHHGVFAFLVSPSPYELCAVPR

[23] = Half life in ICR mouse at 50 mg/kg, po measured up to 24 hrs by LC-MS/MS analysis; settings: in vivo
in vivo [24] = settings: ICR, mouse, po, 50 mg/kg; remark: listed apart in the source
[25] = Toxicity in BALB/c nude mouse xenografted with human MIA PaCa-21 cells expressing KRAS G12C mutant assessed as weight loss at 50 mg/kg, po qd measured on day 21; settings: in vivo
[26] = Cardiotoxicity in Patient-specific iPSC-derived cardiomyocytes assessed as decrease in spontaneous beating of myocardial cell at 10 uM by patch clamp assay; settings: human, cardiac muscle cell
[27] = Elimination rate constant in ICR mouse at 50 mg/kg, po measured up to 24 hrs by LC-MS/MS analysis; settings: in vivo
[28] = rat, in vivo, iv, 2 mg/kg, 24 h; remark: listed apart in the source
[29] = Plasma protein binding in rat at 2 uM preincubated for 1 hr by balanced dialysis based LC-MS/MS analysis
in vitro [30] = settings: dog, liver microsomes
[31] = Half life in Sprague-Dawley rat at 2 mg/kg, iv measured upto 24 hrs by LC/MS/MS analysis; settings: in vivo
Cytochrome P450 3A4 [32] = biological target: T4, Cytochrome P450 3A4 (Homo sapiens, UniProt P08684); assay: Inhibition of CYP3A4 in human liver microsomes at 10 uM using midazolam as substrate preincubated for 10 mins followed by NADPH addition by LC/MS analysis
T4 sequence (P08684 whole entry): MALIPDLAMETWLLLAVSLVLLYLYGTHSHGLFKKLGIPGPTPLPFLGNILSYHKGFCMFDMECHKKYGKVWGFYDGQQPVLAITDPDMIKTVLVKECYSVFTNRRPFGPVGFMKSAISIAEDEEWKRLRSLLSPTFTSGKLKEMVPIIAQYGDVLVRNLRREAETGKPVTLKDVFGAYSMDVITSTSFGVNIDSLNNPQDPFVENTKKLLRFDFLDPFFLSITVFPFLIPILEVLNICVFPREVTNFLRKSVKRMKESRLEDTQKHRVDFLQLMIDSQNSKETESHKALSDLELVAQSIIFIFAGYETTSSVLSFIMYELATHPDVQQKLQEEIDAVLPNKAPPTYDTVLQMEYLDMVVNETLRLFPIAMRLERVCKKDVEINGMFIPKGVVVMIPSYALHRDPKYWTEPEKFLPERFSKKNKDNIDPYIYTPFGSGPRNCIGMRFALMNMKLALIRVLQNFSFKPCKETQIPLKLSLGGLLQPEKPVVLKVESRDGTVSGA

[33] = Plasma protein binding in monkey at 2 uM preincubated for 1 hr by balanced dialysis based LC-MS/MS analysis; settings: rhesus monkey
in vitro [34] = settings: rhesus monkey, liver microsomes
[35] = Half life in overnight fasted Beagle dog at 20 mg/kg, po measured upto 24 hrs by LC/MS/MS analysis; settings: in vivo
Cytochrome P450 2C8 [36] = biological target: T2, Cytochrome P450 2C8; assay: Time-dependent inhibition of CYP2C8 (unknown origin) at 2 ul pre-incubated for 30 mins in presence or absence of NADPH incubated for 10 mins by LC/MS analysis
[37] = rat, in vivo, po, 10 mg/kg, 24 h; remark: listed apart in the source
[38] = Cardiotoxicity in Patient-specific iPSC-derived cardiomyocytes assessed as decrease in maximum depolarization rate of action potential at 0.03 to 3 uM by patch clamp assay; settings: human, cardiac muscle cell
Cytochrome P450 3A4 [39] = biological target: T4, Cytochrome P450 3A4; assay: Time-dependent inhibition of CYP3A4 (unknown origin) at 2 ul pre-incubated for 30 mins in presence or absence of NADPH incubated for 10 mins by LC/MS analysis
[40] = Apparent permeability across apical to basolateral side in dog MDCKII-MDR1 cells; settings: MDCK-MDR1
Cytochrome P450 1A2 = biological target: T5, Cytochrome P450 1A2 (Homo sapiens, UniProt P05177); assay: Inhibition of CYP1A2 in human liver microsomes at 10 uM using phenacetin as substrate preincubated for 10 mins followed by NADPH addition by LC/MS analysis
T5 sequence (P05177 whole entry): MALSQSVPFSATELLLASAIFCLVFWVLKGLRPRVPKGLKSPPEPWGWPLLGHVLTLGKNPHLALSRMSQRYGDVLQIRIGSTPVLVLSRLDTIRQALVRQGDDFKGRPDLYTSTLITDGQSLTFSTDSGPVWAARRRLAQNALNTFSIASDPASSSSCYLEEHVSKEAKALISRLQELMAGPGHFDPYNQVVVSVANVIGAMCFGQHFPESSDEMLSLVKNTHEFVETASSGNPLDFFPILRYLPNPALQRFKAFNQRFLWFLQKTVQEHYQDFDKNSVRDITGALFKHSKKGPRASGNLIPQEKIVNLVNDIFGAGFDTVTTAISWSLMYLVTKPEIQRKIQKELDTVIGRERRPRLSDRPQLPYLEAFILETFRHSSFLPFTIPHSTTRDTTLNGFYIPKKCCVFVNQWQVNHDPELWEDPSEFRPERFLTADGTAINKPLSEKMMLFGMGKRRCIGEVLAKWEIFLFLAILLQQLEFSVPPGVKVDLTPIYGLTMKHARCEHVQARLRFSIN

in vivo [41] = settings: ICR, mouse, po, 50 mg/kg; remark: listed apart in the source
[42] = rat, in vivo, iv, 2 mg/kg, 24 h; remark: listed apart in the source
in vitro [43] = settings: mouse, liver microsomes
Cytochrome P450 2D6 [44] = biological target: T3, Cytochrome P450 2D6; assay: Time-dependent inhibition of CYP2D6 (unknown origin) at 2 ul pre-incubated for 30 mins in presence or absence of NADPH incubated for 10 mins by LC/MS analysis

Cc1nc(N[C@H](C)c2cccc(C(F)F)c2F)c2cc3c(cc2n1)OCC[C@H]1CN(CC(F)(F)F)CCN31
t1/2 [1]: 2 h | Activity [2]: Non-Toxic | fraction unbound at 1 h, 2 µM [3]: 0.001 | Cmax [4]: 232 ng/mL | Cmax [5]: 109 ng/mL | AUC [6]: 1322 ng·h/mL | IC50 (Cytochrome P450 2C9 [7]): 14.6 µM | Cmax [8]: 518 ng/mL | fraction unbound at 1 h, 2 µM [9]: 0.002 | Cmax at 24 h (in vivo [10]): 2260 ng/mL | Tmax [11]: 2.33 h | Activity [12]: Toxic | IC50 (Cytochrome P450 2C9 [13]): 15.4 µM | Tmax [14]: 1.17 h | MRT at 24 h [15]: 5.5 h | CLint scaled at 1 h, 1 µM (in vitro [16]): 442 mL/min/kg | Activity [17]: Toxic | bioavailability at 24 h (in vivo [18]): 18.8% | Papp B→A [19]: 0.78 ×10⁻⁶ cm/s | CLint scaled at 1 h, 1 µM (in vitro [20]): 516 mL/min/kg | IC50 (Cytochrome P450 2C8 [21]): 45.2 µM | IC50 (Cytochrome P450 2D6 [22]): 6.1 µM | half-life at 24 h [23]: 4.13 h | Tmax at 24 h (in vivo [24]): 0.833 h | Activity [25]: Non-Toxic | Activity [26]: Toxic | k el at 24 h [27]: 4.75e-05 s⁻¹ | Tmax [28]: 4.8 min | fraction unbound at 1 h, 2 µM [29]: 0.001 | CLint scaled at 1 h, 1 µM (in vitro [30]): 12 mL/min/kg | t1/2 [31]: 5.35 h | IC50 (Cytochrome P450 3A4 [32]): > 100 µM | fraction unbound at 1 h, 2 µM [33]: 0.001 | CLint scaled at 1 h, 1 µM (in vitro [34]): 396 mL/min/kg | t1/2 [35]: 6.74 h | IC50 (Cytochrome P450 2C8 [36]): 39.1 µM | AUC [37]: 563 ng·h/mL | Activity [38]: Toxic | IC50 (Cytochrome P450 3A4 [39]): > 100 µM | Papp A→B [40]: 0.26 ×10⁻⁶ cm/s | IC50 (Cytochrome P450 1A2): > 100 µM | AUC at 24 h (in vivo [41]): 19900 ng·h/mL | AUC [42]: 596 ng·h/mL | CLint scaled at 1 h, 1 µM (in vitro [43]): 436 mL/min/kg | IC50 (Cytochrome P450 2D6 [44]): 4.3 µM
